Patent US10448639B2, “Fungicidal pyrazoles” (FMC CORPORATION, priority 2009, dated 2019)

Tests used:
[1] = system: Puccinia recondita f. sp. tritici; assay: Test I: wheat leaf rust, preventive spray on wheat seedlings, visual disease rating; details: wheat leaf rust, 100 = 100% disease control; for Test I disease control rating: sprayed the day before inoculation, 0 = no disease control relative to controls
[2] = system: Alternaria solani; assay: Test C: tomato early blight, preventive spray on tomato seedlings, visual disease rating; details: tomato early blight, 100 = 100% disease control; for Test C disease control rating: 0 = no disease control relative to controls
From the text: General protocol for preparing test suspensions for Tests A-J: the test compounds were first dissolved in acetone in an amount equal to 3% of the final volume and then suspended at the desired concentration (in ppm) in acetone and purified water (50/50 mix by volume) containing 250 ppm of the surfactant Trem® 014 (polyhydric alcohol esters). The resulting test suspensions were then used in Tests A-J. Spraying a 200 ppm test suspension to the point of run-off on the test plants was the equivalent of a rate of 500 g/ha. Unless otherwise indicated, the rating values indicate a 200 ppm test suspension was used. (An asterisk “*” next to the rating value indicates a 40 ppm test suspension was used.)
The test suspension was sprayed to the point of run-off on tomato seedlings. The following day the seedlings were inoculated with a spore suspension of Alternaria solani (the causal agent of tomato early blight) and incubated in a saturated atmosphere at 27° C. for 48 h, and then moved to a growth chamber at 20° C. for 5 days, after which time visual disease ratings were made.

[3] = system: Erysiphe graminis f sp. tritici; assay: Test J: wheat powdery mildew, preventive spray on wheat seedlings, visual disease rating; details: wheat powdery mildew, 100 = 100% disease control; for Test J disease control rating: sprayed the day before inoculation, 0 = no disease control relative to controls
[4] = system: Botrytis cinerea; assay: Test B: tomato Botrytis, preventive spray on tomato seedlings, visual disease rating; details: tomato Botrytis, 100 = 100% disease control; for Test B disease control rating: 0 = no disease control relative to controls
[5] = system: Septoria tritici; assay: Test G: wheat leaf blotch, preventive spray on wheat seedlings, visual disease rating; details: wheat leaf blotch, 100 = 100% disease control
[6] = system: Septoria nodorum; assay: Test F: Septoria glume blotch, preventive spray on wheat seedlings, visual disease rating; details: 100 = 100% disease control; for Test F disease control rating: 0 = no disease control relative to controls
[7] = system: Puccinia recondita f. sp. tritici; assay: Test H: wheat leaf rust, curative spray on inoculated wheat seedlings, visual disease rating; details: wheat leaf rust, 100 = 100% disease control; for Test H rating (% disease control): curative, 0 = no control relative to controls; for Test H disease control rating: sprayed after inoculation, 0 = no disease control relative to controls
[8] = preventive spray, 0 = no control
[9] = Septoria glume blotch on wheat, preventive spray, 0 = no control
[10] = 0 = no control relative to controls
[11] = preventive, 0 = no control relative to controls
[12] = Septoria glume blotch, 0 = no control relative to controls

Compound | Test C rating (% disease control) [2, 10] | Test B rating (% disease control) [4, 10] | Test H rating (% disease control) [7] | Test I rating (% disease control) [1, 11] | Test J rating (% disease control) [3, 10] | Test F rating (% disease control) [6, 12] | other results
Cc1ccc(Nc2c(-c3c(F)cc(C#N)cc3F)c(C)nn2C)cc1 [compound 124] | – | – | – | – | – | – | Test I rating (% disease control) [1, 8]: 96%; Test C rating (% disease control) [2, 8]: 78%; Test J rating (% disease control) [3, 8]: 94%; Test B rating (% disease control) [4, 8]: 100%; Test G rating (% disease control) [5, 8]: 99%; Test F rating (% disease control) [6, 9]: 60%
Cc1nn(C)c(Nc2ccc(Cl)c(F)c2)c1-c1c(F)cc(C#N)cc1F [compound 125] | – | – | – | – | – | – | Test I rating (% disease control) [1, 8]: 92%; Test C rating (% disease control) [2, 8]: 67%; Test J rating (% disease control) [3, 8]: 0%; Test B rating (% disease control) [4, 8]: 100%; Test G rating (% disease control) [5, 8]: 99%; Test F rating (% disease control) [6, 9]: 60%
COc1cc(F)c(-c2c(C)nn(C)c2Oc2ccc(Br)c(OC)c2)c(F)c1 [compound 212] | 17% | 0% | 0% | – | – | – | Test G rating (% disease control) [5, 10]: 98%
COc1cccc(Nc2c(-c3ccc(F)cc3F)c(C)nn2C)c1Cl [compound 281] | 44% | 98% | 0% | 94% | 98% | 0% | –
COc1ccc(-c2c(C)nn(C)c2Nc2ccc(Cl)cc2Cl)c(Cl)c1 [compound 282] | 98% | 99% | 0% | 99% | 100% | 0% | –
Cc1nn(C)c(Nc2ccc(Cl)cc2Cl)c1-c1c(F)cccc1Cl [compound 283] | 65% | 99% | 9% | 99% | 100% | 0% | –
Cc1nn(C)c(Oc2ccc(C#N)cc2Cl)c1-c1ccc(F)cc1Br [compound 285] | 0% | 98% | 9% | 99% | 99% | 60% | –
Cc1nn(C)c(Nc2ccc(Cl)cc2Cl)c1-c1ccc(F)cc1Cl [compound 299] | 95% | 100% | 41% | 100% | 100% | 51% | –
Cc1nn(C)c(Nc2c(Cl)cc(F)cc2Cl)c1-c1ccc(F)cc1Br [compound 316] | – | – | – | – | – | – | Test I disease control rating [1]: 99%; Test C disease control rating [2]: 0%; Test J disease control rating [3]: 96%; Test B disease control rating [4]: 99%; Test H disease control rating [7]: 9%; Test F disease control rating ([6]; Septoria glume blotch on wheat): 0%
Cc1nn(C)c(Nc2c(F)cc(F)cc2Cl)c1-c1ccc(Cl)cc1Cl [compound 391] | – | – | – | – | – | – | Test I disease control rating [1]: 99%; Test C disease control rating [2]: 99%; Test J disease control rating [3]: 99%; Test B disease control rating [4]: 100%; Test H disease control rating [7]: 31%; Test F disease control rating ([6]; Septoria glume blotch on wheat): 73%
Cc1nn(C)c(Nc2c(Cl)cc(Br)cc2Cl)c1-c1ccc(F)cc1Cl [compound 403] | – | – | – | – | – | – | Test I disease control rating [1]: 100%; Test C disease control rating [2]: 0%; Test J disease control rating [3]: 99%; Test B disease control rating [4]: 99%; Test H disease control rating [7]: 99%; Test F disease control rating ([6]; Septoria glume blotch on wheat): 0%
